{"source": "patent US20240358861A1", "about": "“COMPOSITIONS AND METHODS OF FLUORESCEIN SODIUM FOR EARLY DIAGNOSIS OF CERVICAL CANCER” (THE MOEIN FAMILY TRUST, priority 2023, published 2024)", "key": {"[1]": {"test_system": "cervix (cervical lesions)", "test": "Colposcopy with AA then FNa staining, histopathology (biopsy) as reference diagnosis", "assay_type": "in vivo, human", "settings": "for Accuracy: correlation of staining with biopsy report; for Sensitivity / Specificity: diagnosis of high grade SIL or worse per histopathology; for Number of patients, stain negative, Total / Number of patients, stain positive, Total: all biopsies", "procedure": "The FNa formulation is applied in 3 steps, each using either a cotton swab or plastic pipette for delivery and continuing until all solution is dispensed: a) Pre-rinse with 10 mL of normal saline to remove cervical mucus. b) Apply 10 mL of a FNa delivery solution over the cervix. Solution in the posterior cul-de-sac is picked up with the pipette and resprayed, at least once, then discarded. c) after imaging or diagnosis, post-rinse with 10 mL of normal saline."}, "cervix": {"test_system": "cervix", "test": "Staining properties of FNa versus AA when tested", "design": "species or system human", "settings": "in vivo", "description": "In some embodiments, FNa staining may be observed with an unaided eye. Using FNa as a staining agent enables use in low resource settings where access to a colposcope is not possible."}, "cervical lesions (CIN)": {"test_system": "cervical lesions (CIN)", "test": "Lesion grade stained, shown by p16, Ki67 and c-myc FISH staining of specimens", "design": "species or system human"}}, "data": [{"smiles": "CC(=O)O", "note": "[AA, acetic acid]", "values": [{"measurement": "More false positives than the other stain", "setting": "[1]; AA versus FNa, patients with low grade SIL per histopathology", "result": "three"}, {"measurement": "Number of patients Acetic acid positive", "setting": "[1]; No pap smear (n = 5)", "result": 5}, {"measurement": "Number of patients Acetic acid positive", "setting": "[1]; Pap smear High grade (n = 22)", "result": 20}, {"measurement": "Number of patients Acetic acid positive", "setting": "[1]; Pap smear Invasive (n = 5)", "result": 5}, {"measurement": "Number of patients Acetic acid positive", "setting": "[1]; Pap smear Low grade (n = 46)", "result": 44}, {"measurement": "Accuracy", "setting": "[1]", "result": "Accuracy = 94%"}, {"measurement": "Sensitivity", "setting": "[1]", "result": 94, "unit": "%"}, {"measurement": "Specificity", "setting": "[1]", "result": 43, "unit": "%"}, {"measurement": "Missed high grade lesions", "setting": "[1]; in vivo", "result": "Neither AA nor FNa missed any high grade lesions"}, {"measurement": "Number of patients, stain negative, Total", "setting": "[1]", "result": 4}, {"measurement": "Number of patients, stain negative, biopsy Ca, HG, LG", "setting": "[1]", "result": 1}, {"measurement": "Number of patients, stain positive, Total", "setting": "[1]", "result": 74}, {"measurement": "Number of patients, stain positive, biopsy Ca, HG, LG", "setting": "[1]", "result": 70}, {"measurement": "Burning sensation", "setting": "cervix", "result": "burning sensation that AA causes"}, {"measurement": "Lesion grades stained", "setting": "cervical lesions (CIN)", "result": "stains any lesion from CIN 1 and worse"}]}, {"smiles": "O=C1OC2(c3ccc(O)cc3Oc3cc(O)ccc32)c2ccccc21", "note": "[FNa, Fluorescein (3′,6′-dihydrospiro[isobenzofuran-1(3H),9′-[9H]xanthene]-3-one) sodium]", "values": [{"measurement": "Number of patients", "setting": "[1]; No pap smear (n = 5), stain Negative, Benign biopsy n = 6", "result": 0}, {"measurement": "Number of patients", "setting": "[1]; No pap smear (n = 5), stain Negative, High grade biopsy (n = 26)", "result": 0}, {"measurement": "Number of patients", "setting": "[1]; No pap smear (n = 5), stain Negative, Invasive (n = 5)", "result": 0}, {"measurement": "Number of patients", "setting": "[1]; No pap smear (n = 5), stain Negative, Low grade Biopsy (n = 41)", "result": 1}, {"measurement": "Number of patients", "setting": "[1]; No pap smear (n = 5), stain Negative, all", "result": 1}, {"measurement": "Number of patients", "setting": "[1]; No pap smear (n = 5), stain Positive, Benign biopsy n = 6", "result": 0}, {"measurement": "Number of patients", "setting": "[1]; No pap smear (n = 5), stain Positive, High grade biopsy (n = 26)", "result": 1}, {"measurement": "Number of patients", "setting": "[1]; No pap smear (n = 5), stain Positive, Invasive (n = 5)", "result": 0}, {"measurement": "Number of patients", "setting": "[1]; No pap smear (n = 5), stain Positive, Low grade Biopsy (n = 41)", "result": 3}, {"measurement": "Number of patients", "setting": "[1]; No pap smear (n = 5), stain Positive, all", "result": 4}, {"measurement": "Number of patients", "setting": "[1]; Pap smear High grade (n = 22), stain Negative, Benign biopsy n = 6", "result": 2}, {"measurement": "Number of patients", "setting": "[1]; Pap smear High grade (n = 22), stain Negative, High grade biopsy (n = 26)", "result": 0}, {"measurement": "Number of patients", "setting": "[1]; Pap smear High grade (n = 22), stain Negative, Invasive (n = 5)", "result": 0}, {"measurement": "Number of patients", "setting": "[1]; Pap smear High grade (n = 22), stain Negative, Low grade Biopsy (n = 41)", "result": 0}, {"measurement": "Number of patients", "setting": "[1]; Pap smear High grade (n = 22), stain Negative, all", "result": 2}, {"measurement": "Number of patients", "setting": "[1]; Pap smear High grade (n = 22), stain Positive, Benign biopsy n = 6", "result": 0}, {"measurement": "Number of patients", "setting": "[1]; Pap smear High grade (n = 22), stain Positive, High grade biopsy (n = 26)", "result": 12}, {"measurement": "Number of patients", "setting": "[1]; Pap smear High grade (n = 22), stain Positive, Invasive (n = 5)", "result": 3}, {"measurement": "Number of patients", "setting": "[1]; Pap smear High grade (n = 22), stain Positive, Low grade Biopsy (n = 41)", "result": 5}, {"measurement": "Number of patients", "setting": "[1]; Pap smear High grade (n = 22), stain Positive, all", "result": 20}, {"measurement": "Number of patients", "setting": "[1]; Pap smear Invasive (n = 5), stain Negative, Benign biopsy n = 6", "result": 0}, {"measurement": "Number of patients", "setting": "[1]; Pap smear Invasive (n = 5), stain Negative, High grade biopsy (n = 26)", "result": 0}, {"measurement": "Number of patients", "setting": "[1]; Pap smear Invasive (n = 5), stain Negative, Invasive (n = 5)", "result": 0}, {"measurement": "Number of patients", "setting": "[1]; Pap smear Invasive (n = 5), stain Negative, Low grade Biopsy (n = 41)", "result": 0}, {"measurement": "Number of patients", "setting": "[1]; Pap smear Invasive (n = 5), stain Negative, all", "result": 0}, {"measurement": "Number of patients", "setting": "[1]; Pap smear Invasive (n = 5), stain Positive, Benign biopsy n = 6", "result": 0}, {"measurement": "Number of patients", "setting": "[1]; Pap smear Invasive (n = 5), stain Positive, High grade biopsy (n = 26)", "result": 4}, {"measurement": "Number of patients", "setting": "[1]; Pap smear Invasive (n = 5), stain Positive, Invasive (n = 5)", "result": 1}, {"measurement": "Number of patients", "setting": "[1]; Pap smear Invasive (n = 5), stain Positive, Low grade Biopsy (n = 41)", "result": 0}, {"measurement": "Number of patients", "setting": "[1]; Pap smear Invasive (n = 5), stain Positive, all", "result": 5}, {"measurement": "Number of patients", "setting": "[1]; Pap smear Low grade (n = 46), stain Negative, Benign biopsy n = 6", "result": 4}, {"measurement": "Number of patients", "setting": "[1]; Pap smear Low grade (n = 46), stain Negative, High grade biopsy (n = 26)", "result": 0}, {"measurement": "Number of patients", "setting": "[1]; Pap smear Low grade (n = 46), stain Negative, Invasive (n = 5)", "result": 0}, {"measurement": "Number of patients", "setting": "[1]; Pap smear Low grade (n = 46), stain Negative, Low grade Biopsy (n = 41)", "result": 3}, {"measurement": "Number of patients", "setting": "[1]; Pap smear Low grade (n = 46), stain Negative, all", "result": 7}, {"measurement": "Number of patients", "setting": "[1]; Pap smear Low grade (n = 46), stain Positive, Benign biopsy n = 6", "result": 0}, {"measurement": "Number of patients", "setting": "[1]; Pap smear Low grade (n = 46), stain Positive, High grade biopsy (n = 26)", "result": 9}, {"measurement": "Number of patients", "setting": "[1]; Pap smear Low grade (n = 46), stain Positive, Invasive (n = 5)", "result": 1}, {"measurement": "Number of patients", "setting": "[1]; Pap smear Low grade (n = 46), stain Positive, Low grade Biopsy (n = 41)", "result": 29}, {"measurement": "Number of patients", "setting": "[1]; Pap smear Low grade (n = 46), stain Positive, all", "result": 39}, {"measurement": "Accuracy", "setting": "[1]", "result": "Accuracy = 94%"}, {"measurement": "Sensitivity", "setting": "[1]", "result": 94, "unit": "%"}, {"measurement": "Specificity", "setting": "[1]", "result": 86, "unit": "%"}, {"measurement": "Number of patients, stain negative, Total", "setting": "[1]", "result": 10}, {"measurement": "Number of patients, stain negative, biopsy Ca, HG, LG", "setting": "[1]", "result": 4}, {"measurement": "Number of patients, stain positive, Total", "setting": "[1]", "result": 68}, {"measurement": "Number of patients, stain positive, biopsy Ca, HG, LG", "setting": "[1]", "result": 67}, {"measurement": "Burning sensation", "setting": "cervix", "result": "did not cause the same burning sensation"}]}]}
